In one assay the target is T1, PRMT5/MEP50 complex (Homo sapiens, UniProt O14744).
T1 construct: purchased Reaction Biology Corporation
T1 sequence (O14744 2-637 limits assumed): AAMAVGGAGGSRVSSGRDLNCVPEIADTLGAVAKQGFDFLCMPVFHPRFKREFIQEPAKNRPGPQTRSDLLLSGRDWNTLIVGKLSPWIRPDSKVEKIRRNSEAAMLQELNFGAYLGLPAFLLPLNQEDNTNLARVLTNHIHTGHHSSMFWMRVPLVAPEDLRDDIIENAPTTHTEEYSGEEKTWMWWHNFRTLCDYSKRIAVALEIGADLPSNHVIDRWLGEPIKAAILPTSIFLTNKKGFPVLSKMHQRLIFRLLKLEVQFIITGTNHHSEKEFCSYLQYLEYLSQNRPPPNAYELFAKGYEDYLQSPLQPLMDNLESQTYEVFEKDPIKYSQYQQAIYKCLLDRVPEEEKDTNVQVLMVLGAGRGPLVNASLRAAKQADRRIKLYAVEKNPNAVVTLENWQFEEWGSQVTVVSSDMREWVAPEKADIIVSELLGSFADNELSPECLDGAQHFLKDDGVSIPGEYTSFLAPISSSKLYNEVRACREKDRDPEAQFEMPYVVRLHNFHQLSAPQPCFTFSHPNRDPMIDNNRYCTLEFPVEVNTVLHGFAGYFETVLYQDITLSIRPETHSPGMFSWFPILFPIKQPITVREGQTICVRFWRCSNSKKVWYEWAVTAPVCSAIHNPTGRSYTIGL
T1 sequence (Q9BQA1 2-342 partner limits assumed): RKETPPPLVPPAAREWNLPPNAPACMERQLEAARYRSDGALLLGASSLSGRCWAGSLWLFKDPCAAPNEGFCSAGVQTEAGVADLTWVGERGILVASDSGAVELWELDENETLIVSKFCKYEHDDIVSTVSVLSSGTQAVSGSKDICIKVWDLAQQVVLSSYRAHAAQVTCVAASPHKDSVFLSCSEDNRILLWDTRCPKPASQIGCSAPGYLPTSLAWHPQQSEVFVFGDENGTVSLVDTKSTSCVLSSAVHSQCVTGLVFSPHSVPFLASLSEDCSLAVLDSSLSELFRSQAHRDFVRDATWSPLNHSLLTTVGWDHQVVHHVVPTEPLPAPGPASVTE
As to the kind of experiment: PRMT5:MEP50 HotSpot Assay (full-length histone H2A substrate, plus and minus MTA). The class given is biochemical. To be noted: IC50 + 2 μM MTA, in the presence of 2 μM MTA. The procedure:
The PRMT5 inhibitory activity of compounds of the present invention was determined using either a PRMT5:MEP50 FlashPlate Assay (Reaction Biology Corporation) or a PRMT5:MEP50 HotSpot Assay (Reaction Biology Corporation).
The assay uses recombinant full-length hi stone H2A as the PRMT5 substrate. […] The reaction was stopped and transferred to filter paper for detection. The amount of tritiated H2A in each sample was determined using a scintillation counter.
Broadly, the IC50 is the concentration that gives 50% inhibition. As for `N#Cc1ccccc1-n1c(-c2ccc3c(=O)[nH]nc(CN)c3c2)cnc1CO` [Example 4-194, 2-(5-(4-(aminomethyl)-1-oxo-1,2-dihydrophthalazin-6-yl)-2-(hydroxymethyl)-1H-imidazol-1-yl)benzonitrile], the IC50 was 3820 nM.

Turning to `Cc1cc2ccccc2c(C#N)c1-c1c(-c2ccc3c(=O)[nH]nc(CN)c3c2)cnn1C` (single isomer, unassigned) [Example 12-15B], the half-maximal inhibitory concentration (IC50) is 356 nM.

For `Cn1ncc(-c2ccc3c(=O)[nH]nc(CN)c3c2)c1-c1c(F)c(Cl)cc(CC2CC2)c1C#N` (single isomer, unassigned) [Example 16-125, (P)-2-(4-(4-(aminomethyl)-1-oxo-1,2-dihydrophthalazin-6-yl)-1-methyl-1H-pyrazol-5-yl)-4-chloro-6-(cyclopropylmethyl)-3-fluorobenzonitrile], the IC50 worked out at 2950 nM.

For the molecule `Cn1ncc(-c2cc3c(CN)n[nH]c(=O)c3s2)c1-c1ccc2ccccc2c1C#N` [Example 17-7, 2-(4-(4-(aminomethyl)-7-oxo-6,7-dihydrothieno[2,3-d]pyridazin-2-yl)-1-methyl-1H-pyrazol-5-yl)-1-naphthonitrile], the IC50 was found to be 2310 nM.

`Cn1ncc(-c2ccc3c(=O)[nH]nc(CN)c3c2)c1-c1c(F)cnc(OC2CC2)c1C#N` (atropisomer, axis not shown; (M)) [Example 16-136, (M)-4-(4-(4-(aminomethyl)-1-oxo-1,2-dihydrophthalazin-6-yl)-1-methyl-1H-pyrazol-5-yl)-2-cyclopropoxy-5-fluoronicotinonitrile]: the IC50 is 393 nM.

As to `Cn1ncc(-c2cc(C(=O)C(F)F)c3c(=O)[nH]nc(CN)c3c2)c1-c1sc2ccccc2c1C#N` [Example 15-9, 2-(4-(4-(aminomethyl)-8-(2,2-difluoro-acetyl)-1-oxo-1,2-dihydrophthalazin-6-yl)--methyl-1H-pyrazol-5-yl)benzo[b]-thiophene-3-carbonitrile], the half-inhibitory concentration (IC50) turned out to be 1270 nM.

`Cc1c(F)c(-c2c(-c3cc(C)c4c(=O)[nH]nc(CN)c4c3)cnn2C)c(C#N)c2cc(Cl)cnc12` (single isomer, unassigned) [Example 16-108, (M)-6-(4-(4-(aminomethyl)-8-methyl-1-oxo-1,2-dihydrophthalazin-6-yl)-1-methyl-1H-pyrazol-5-yl)-3-chloro-7-fluoro-8-methylquinoline-5-carbonitrile]: the IC50 worked out at 5 nM.

As to `C[C@H](N)c1n[nH]c(=O)c2ccc(-c3cnn(C)c3-c3ccc4ccccc4c3C#N)nc12` [Example 20-2], the IC50 was found to be 200 nM.

`Cn1ncc(-c2ccc3c(=O)[nH]nc(CN)c3c2)c1-c1c(Cl)c(Cl)cc(OC2CC2)c1C#N` (single isomer, unassigned) [Example 16-123, (P)-2-(4-(4-(aminomethyl)-1-oxo-1,2-dihydrophthalazin-6-yl)-1-methyl-1H-pyrazol-5-yl)-3,4-dichloro-6-cyclopropoxybenzonitrile]: the IC50 stood at 4000 nM.

Take `Cc1c(F)c(-c2c(-c3cc(Cl)c4c(=O)[nH]nc(CN)c4c3)cnn2C)c(C#N)c2cc(Cl)cnc12` (single isomer, unassigned) [Example 16-109, (P)-6-(4-(4-(aminomethyl)-8-chloro-1-oxo-1,2-dihydrophthalazin-6-yl)-1-methyl-1H-pyrazol-5-yl)-3-chloro-7-fluoro-8-methylquinoline-5-carbonitrile]: the IC50 came to 1370 nM.

`Cn1ncc(-c2ccc3c(=O)[nH]nc(CN)c3c2)c1-c1c(C(F)F)cc2ccccc2c1C#N` (single isomer, unassigned) [Example 16-129, (P)-2-(4-(4-(aminomethyl)-1-oxo-1,2-dihydrophthalazin-6-yl)-1-methyl-1H-pyrazol-5-yl)-3-(difluoromethyl)-1-naphthonitrile]: the concentration for half-maximal inhibition (IC50) is 5250 nM.

In the case of `Cn1ncc(-c2ccc3c(=O)[nH]nc(CN)c3c2)c1-c1c(C#N)cc2[nH]cnc2c1Cl` (atropisomer, axis not shown; (P)) [Example 16-116, (P)-5-(4-(4-(aminomethyl)-1-oxo-1,2-dihydrophthalazin-6-yl)-1-methyl-1H-pyrazol-5-yl)-4-chloro-1H-benzo[d]imidazole-6-carbonitrile], the IC50 was 477 nM.

For the molecule `Cn1ncc(-c2ccc3c(=O)[nH]nc([C@H](N)C(F)F)c3c2)c1-c1ccc2ccccc2c1C#N` [Example 9-6, 2-[4-[4-[(1S)-1-amino-2,2-difluoro-ethyl]-1-oxo-2H-phthalazin-6-yl]-2-methyl-pyrazol-3-yl]naphthalene-1-carbonitrile], the IC50 is greater than 10000 nM.

As for `Cn1ncc(-c2cnc3c(=O)[nH]nc(CN)c3c2)c1-c1sc2ccccc2c1C#N` [Example 17-4, 2-(4-(5-(aminomethyl)-8-oxo-7,8-dihydropyrido[2,3-d]pyridazin-3-yl)-1-methyl-1H-pyrazol-5-yl)benzo[b]thiophene-3-carbonitrile], the IC50 worked out at 1310 nM.

Regarding `Cn1ncc(-c2ccc3c(=O)[nH]nc(CN)c3c2)c1-c1c(Cl)c(Cl)cc(OC2CC2)c1C#N` (single isomer, unassigned) [Example 16-124, (M)-2-(4-(4-(aminomethyl)-1-oxo-1,2-dihydrophthalazin-6-yl)-1-methyl-1H-pyrazol-5-yl)-3,4-dichloro-6-cyclopropoxybenzonitrile], the IC50 stood at 70 nM.

Turning to `Cn1ncc(-c2ccc3c(=O)[nH]nc(CN)c3c2)c1-c1c(Cl)cc2ccccc2c1C#N` (single isomer, unassigned) [Example 16-127, (P)-2-(4-(4-(aminomethyl)-1-oxo-1,2-dihydrophthalazin-6-yl)-1-methyl-1H-pyrazol-5-yl)-3-chloro-1-naphthonitrile], the IC50 amounted to 347 nM.

As for `Cc1c(Cl)cc(OC2CC2)c(C#N)c1-c1c(-c2ccc3c(=O)[nH]nc(CN)c3c2)cnn1C` (single isomer, unassigned) [Example 16-122, (P)-2-(4-(4-(aminomethyl)-1-oxo-1,2-dihydrophthalazin-6-yl)-1-methyl-1H-pyrazol-5-yl)-4-chloro-6-cyclopropoxy-3-methylbenzonitrile], the IC50 was 112 nM.

As for `Cc1ncn(-c2ccc3c(=O)[nH]nc(CN)c3c2)c1-c1sc2ccccc2c1C#N` [Example 20-6, 2-[3-[4-(aminomethyl)-1-oxo-2H-phthalazin-6-yl]-5-methyl-imidazol-4-yl]benzothiophene-3-carbonitrile], the half-maximal inhibitory concentration (IC50) was 2250 nM.

Take `Cc1cnc2cc(F)c(-c3c(-c4ccc5c(=O)[nH]nc(CN)c5c4)cnn3C)c(C#N)c2c1` (atropisomer, axis not shown; (P)) [Example 16-36, (P)-6-[4-[4-(aminomethyl)-1-oxo-2H-phthalazin-6-yl]-2-methyl-pyrazol-3-yl]-7-fluoro-3-methyl-quinoline-5-carbonitrile]: the IC50 was 543 nM.

As to `Cc1c(Cl)cc(OC2CC2)c(C#N)c1-c1c(-c2ccc3c(=O)[nH]nc(CN)c3c2)cnn1C` (single isomer, unassigned) [Example 16-121, (M)-2-(4-(4-(aminomethyl)-1-oxo-1,2-dihydrophthalazin-6-yl)-1-methyl-1H-pyrazol-5-yl)-4-chloro-6-cyclopropoxy-3-methylbenzonitrile], the half-maximal inhibitory concentration (IC50) was greater than 10000 nM.

`Cc1ncc(-c2ccc3c(=O)[nH]nc(CN)c3c2)n1-c1sc2ccccc2c1C#N` [Example 4-288, 2-(5-(4-(aminomethyl)-1-oxo-1,2-dihydrophthalazin-6-yl)-2-methyl-1H-imidazol-1-yl)benzo[b]thiophene-3-carbonitrile]: the IC50 was determined as 1480 nM.

As for `Cc1c(F)c(-c2c(-c3cc(C)c4c(=O)[nH]nc(CN)c4c3)cnn2C)c(C#N)c2cc(Cl)cnc12` (single isomer, unassigned) [Example 16-107, (P)-6-(4-(4-(aminomethyl)-8-methyl-1-oxo-1,2-dihydrophthalazin-6-yl)-1-methyl-1H-pyrazol-5-yl)-3-chloro-7-fluoro-8-methylquinoline-5-carbonitrile], the half-maximal inhibitory concentration (IC50) amounted to 634 nM.

In the case of `Cn1ncc(-c2ccc3c(=O)[nH]nc(CN)c3c2)c1N1CCCC1C#N` (stereo not shown) [Example 4-290, 1-(4-(4-(aminomethyl)-1-oxo-1,2-dihydrophthalazin-6-yl)-1-methyl-1H-pyrazol-5-yl)pyrrolidine-2-carbonitrile], the 50% inhibitory concentration (IC50) was 168 nM.

`Cn1ncc(-c2ccc3c(=O)[nH]nc(CN)c3c2)c1-c1c(F)cnc(OC2CC2)c1C#N` (atropisomer, axis not shown; (P)) [Example 16-135, (P)-4-(4-(4-(aminomethyl)-1-oxo-1,2-dihydrophthalazin-6-yl)-1-methyl-1H-pyrazol-5-yl)-2-cyclopropoxy-5-fluoronicotinonitrile]: the concentration for half-maximal inhibition (IC50) was 758 nM.

Consider `Cn1ncc(-c2ccc3c(=O)[nH]nc(CN)c3c2)c1N1CCCCC1C#N` (stereo not shown) [Example 4-289, 1-(4-(4-(aminomethyl)-1-oxo-1,2-dihydrophthalazin-6-yl)-1-methyl-1H-pyrazol-5-yl)piperidine-2-carbonitrile], for which the half-inhibitory concentration (IC50) came to 4080 nM.

For the molecule `Cn1nnc(-c2ccc3c(=O)[nH]nc(CN)c3c2)c1-c1sc2ccccc2c1C#N` [Example 4-291, 2-(4-(4-(aminomethyl)-1-oxo-1,2-dihydrophthalazin-6-yl)-1-methy1-1H-1,2,3-triazol-5-yl)benzo[b]thiophene-3-carbonitrile], the IC50 worked out at 737 nM.

Staying with this assay, now noted: in the absence of MTA, read-out: IC50.
With `Cn1ncc(-c2ccc3c(=O)[nH]nc(CN)c3c2)c1-c1ccccc1C#N` [Example 4-100, 2-(4-(4-(aminomethyl)-1-oxo-1,2-dihydrophthalazin-6-yl)-1-methyl-1H-pyrazol-5-yl)benzonitrile], the concentration for half-maximal inhibition (IC50) was greater than 10000 nM.

Still in this assay, the particulars now being: read-out: IC50 + 2 μM MTA, in the presence of 2 μM MTA.
Regarding `Cn1ncc(-c2ccc3c(=O)[nH]nc(CN)c3c2)c1-c1c(C2COC2)ccc2c1COC2` (atropisomer, axis not shown; (M)) [Example 16-138, (M)-4-(aminomethyl)-6-(1-methyl-5-(5-(oxetan-3-yl)-1,3-dihydroisobenzofuran-4-yl)-1H-pyrazol-4-yl)phthalazin-1(2H)-one], the IC50 was greater than 10000 nM.

The values are drawn from patent US20240208912A1 (Mirati Therapeutics, Inc., priority 2021, published 2024).
